Reference: patent US20250313575A1, “MACROCYCLES AS LRRK2 INHIBITORS, PHARMACEUTICAL COMPOSITIONS, AND USES THEREOF” (Merck Sharp & Dohme LLC, priority 2022, published 2025)

Each compound was assayed against GST-tagged truncated human mutant G2019S LRRK2 (Homo sapiens (Human), UniProt Q5S007, G2019S) (assay: LRRK2 G2019S Km ATP LanthaScreen assay). Settings: G2019S LRRK2, 134 μM ATP (Km ATP), LRRKtide substrate.
Format: biochemical
Outline: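 Ten-point compound series (highest 9.99 μM in DMSO) preincubated 15 min with 1.25 nM GST-tagged truncated human LRRK2 G2019S, then 90 min reaction at ambient temperature with 134 μM ATP (Km) and fluorescein-labelled LRRKtide, pH 8.5. Phosphorylation read as 520/495 nm emission ratio via Tb-labelled antibody; IC50 from 4P logistic regression.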

Sequence of GST-tagged truncated human mutant G2019S LRRK2 (Q5S007 970-2527 G2019S): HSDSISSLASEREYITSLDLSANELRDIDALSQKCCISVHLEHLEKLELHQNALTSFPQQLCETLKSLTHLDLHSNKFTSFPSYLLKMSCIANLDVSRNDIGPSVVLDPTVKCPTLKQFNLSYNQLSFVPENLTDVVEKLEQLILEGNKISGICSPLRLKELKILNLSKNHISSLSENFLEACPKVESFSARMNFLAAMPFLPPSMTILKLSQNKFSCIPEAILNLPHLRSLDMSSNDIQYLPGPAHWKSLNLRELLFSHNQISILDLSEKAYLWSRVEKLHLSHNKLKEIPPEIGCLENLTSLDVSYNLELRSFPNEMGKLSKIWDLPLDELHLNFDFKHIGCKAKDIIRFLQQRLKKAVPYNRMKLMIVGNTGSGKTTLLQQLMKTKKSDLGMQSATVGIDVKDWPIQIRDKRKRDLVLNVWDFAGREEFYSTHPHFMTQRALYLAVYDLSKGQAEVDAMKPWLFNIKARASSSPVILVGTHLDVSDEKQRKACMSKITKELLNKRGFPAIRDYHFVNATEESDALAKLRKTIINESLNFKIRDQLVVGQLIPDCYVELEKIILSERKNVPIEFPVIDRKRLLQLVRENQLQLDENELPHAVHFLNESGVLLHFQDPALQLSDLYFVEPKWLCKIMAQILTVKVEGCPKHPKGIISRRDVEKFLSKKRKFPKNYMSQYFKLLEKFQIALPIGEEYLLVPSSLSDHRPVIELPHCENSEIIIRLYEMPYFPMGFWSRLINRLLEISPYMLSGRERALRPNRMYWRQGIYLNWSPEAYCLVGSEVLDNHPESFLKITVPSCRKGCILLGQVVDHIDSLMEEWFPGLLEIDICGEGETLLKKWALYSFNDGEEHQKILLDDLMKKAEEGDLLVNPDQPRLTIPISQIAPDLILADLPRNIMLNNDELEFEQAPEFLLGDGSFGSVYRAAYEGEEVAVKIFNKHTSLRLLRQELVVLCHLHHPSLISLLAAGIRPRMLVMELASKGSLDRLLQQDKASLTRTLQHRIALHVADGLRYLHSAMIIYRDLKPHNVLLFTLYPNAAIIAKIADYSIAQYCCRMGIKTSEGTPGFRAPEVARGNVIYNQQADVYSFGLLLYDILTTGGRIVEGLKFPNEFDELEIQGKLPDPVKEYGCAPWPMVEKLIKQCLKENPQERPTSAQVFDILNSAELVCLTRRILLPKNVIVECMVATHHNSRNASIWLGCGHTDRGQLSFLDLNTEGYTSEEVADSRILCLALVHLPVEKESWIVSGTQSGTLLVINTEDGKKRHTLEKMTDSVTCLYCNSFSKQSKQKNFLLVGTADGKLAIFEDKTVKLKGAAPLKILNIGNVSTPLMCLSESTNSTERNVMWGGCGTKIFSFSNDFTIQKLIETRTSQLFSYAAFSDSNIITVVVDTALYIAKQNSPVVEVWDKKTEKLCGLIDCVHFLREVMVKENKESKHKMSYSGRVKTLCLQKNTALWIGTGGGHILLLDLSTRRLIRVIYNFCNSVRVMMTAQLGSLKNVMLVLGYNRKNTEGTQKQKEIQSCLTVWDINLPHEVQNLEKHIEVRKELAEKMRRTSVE

Point of comparison: “(R)- or (S)-1-cyclopropyl-3,7-dimethyl-10- (trifluoromethyl)-1,5,6,7,8,14-hexahydro- 9,13-(azeno)pyrazolo[4,3- b][1]oxa[4,6,10]triazacyclotridecine [Ex-2.21]”, “LRRK2 pIC50” value 9.00. Against it:
- COc1cccc2c1Nc1ncc(Cl)c(n1)N[C@@H]1COC[C@H]1CO2 [Ex-15.2, (3aS,16aS)-6-chloro-11-methoxy-3a,4,16,16a-tetrahydro-1H,3H,10H-5,9-(azeno)benzo[b]furo[3,4-k][1]oxa[4,6,10]triazacyclotridecine] — higher, 9.65
- Cc1cnc2c(c1)Nc1ncc(C(F)(F)F)c(n1)N[C@@H]1COC[C@H]1CO2 [Ex-15.3, (11aS,14aS)-3-methyl-9-(trifluoromethyl)-11a,12,14a,15-tetrahydro-5H,11H,14H6,10-(azeno)furo[3,4-k]pyrido[2,3-b][1]oxa[4,6,10]triazacyclotridecine] — within 0.2 log units, 9.15
- FC(F)(F)c1cnc2nc1N[C@@H]1COC[C@H]1COc1cccc(Br)c1N2 [Ex-15.4, (3aS,16aS)-11-bromo-6-(trifluoromethyl)-3a,4,16,16a-tetrahydro-1H,3H,10H-5,9-(azeno)benzo[b]furo[3,4-k][1]oxa[4,6,10]triazacyclotridecine] — within 0.2 log units, 9.12
- FC(F)(F)c1cnc2nc1N[C@@H]1COC[C@H]1COc1ccnc(Cl)c1N2 [Ex-15.5, (3aS,16aS)-11-chloro-6-(trifluoromethyl)-3a,4,16,16a-tetrahydro-1H,3H,10H-5,9-(azeno)furo[3,4-k]pyrido[4,3-b][1]oxa[4,6,10]triazacyclotridecine] — higher, 9.90
- FC(F)(F)c1cnc2nc1N[C@@H]1COC[C@H]1COc1ncccc1N2 [Ex-15.6, (11aS,14aS)-9-(trifluoromethyl)-11a,12,14a,15-tetrahydro-5H,11H,14H6,10-(azeno)furo[3,4-k]pyrido[2,3-b][1]oxa[4,6,10]triazacyclotridecine] — within 0.2 log units, 9.08
- Cc1ccc2c(n1)OC[C@@H]1COC[C@H]1Nc1nc(ncc1C(F)(F)F)N2 [Ex-15.7, (11aS,14aS)-2-methyl-9-(trifluoromethyl)-11a,12,14a,15-tetrahydro-5H,11H,14H6,10-(azeno)furo[3,4-k]pyrido[2,3-b][1]oxa[4,6,10]triazacyclotridecine] — higher, 10.01
- FC(F)(F)c1cnc2nc1N[C@@H]1COC[C@H]1COc1cc(Cl)ncc1N2 [Ex-15.8, (3aS,16aS)-13-chloro-6-(trifluoromethyl)-3a,4,16,16a-tetrahydro-1H,3H,10H-5,9-(azeno)furo[3,4-k]pyrido[4,3-b][1]oxa[4,6,10]triazacyclotridecine] — within 0.2 log units, 9.04
- C[C@@H]1CCOc2cn(C)nc2Nc2ncc(Cl)c(n2)N1 [Ex-18.1, (R)-10-chloro-2,7-dimethyl-2,5,6,7,8,14-hexahydro-9,13-(azeno)pyrazolo[4,3-b][1]oxa[4,6,10]triazacyclotridecine] — lower, 7.94
- (10aR,12aR)-8-chloro-3-methyl-1- (trifluoromethyl)-3,4,10,10a,11,12,12a,13- octahydro-5,9- (azeno)cyclobuta[k]pyrazolo[4,3- b][1]oxa[4,6,10]triazacyclotridecine [Ex-2.76] — higher, 9.47
- (R)- or (S)-1-cyclopropyl-3,7-dimethyl-10- (trifluoromethyl)-1,5,6,7,8,14-hexahydro- 9,13-(azeno)pyrazolo[4,3- b][1]oxa[4,6,10]triazacyclotridecine [Ex-2.20] — lower, 6.71

With `Cc1nn(C)c2c1OC[C@@H]1CN(C[C@H]1C)c1nc(ncc1C(F)(F)F)N2` [Ex-19.1] the “LRRK2 pIC50” value was greater than 10.09.
